Where a SMILES comes first, the peptide text is derived from it. The star is where a group is joined. CH2Cl = ClC*
Key:
[1] = system: EMT6 cells; assay: cell death of EMT6 cells in vitro; type: cell-based, mouse; conditions: for cell death at concentration used for vaccination: 60 μM; for LDH release: WT EMT6 cells; for potency at killing WT EMT6 cells: cell-titer Glo assay, in vitro
[2] = system: full-length GSDMD in HEK293T cells; assay: activation of full-length GSDMD in transfected HEK293T cells; type: cell-based, human
[3] = system: B16 cells that expressed GFP; assay: subcutaneous B16-GFP tumors in syngeneic mice; type: in vivo, mouse; conditions: 10 mg/kg every 3 days x6
[4] = biological target: T1, Human GSDMD (Homo sapiens, UniProt P57764); assay: time-resolved fluorogenic; type: biochemical; conditions: read-out: EC50 of liposome leakage; human GSDMD 0.3 μM, Tb3+/DPA fluorescence
[5] = system: KP lung adenocarcinoma tumors; assay: subcutaneous KP tumors in WT and Gsdmd−/− C57BL/6 mice; type: in vivo, mouse
[6] = system: mouse GSDMD; assay: liposome leakage assay with mouse GSDMD; type: biochemical
[7] = system: THP-1 cells; assay: cell death of WT THP-1 cells by PI uptake; type: cell-based, human
[8] = system: Human GSDMD-GFP-expressing B16 cells; assay: pyroptosis of B16-GSDMD-GFP cells in vitro by PI uptake; type: cell-based, mouse; conditions: 10 μM DMB
[9] = system: GSDMD knockout (KO) THP-1 cells; assay: cell death of GSDMD KO THP-1 cells by PI uptake; type: cell-based, human; conditions: 5 or 20 μM
[10] = system: CT26 colorectal cancer; assay: subcutaneous CT26 tumors in syngeneic mice; type: in vivo, mouse; conditions: 10 mg/kg
[11] = system: human GSDMA, GSDMB, GSDMC, GSDME; assay: liposome leakage assay with other human gasdermins; type: biochemical; conditions: gasdermins 0.3 μM
[12] = biological target: T1, Human GSDMD; assay: microscale thermophoresis; type: binding; conditions: read-out: dissociation constant (KD) by MST; Alexa 647-labeled GSDMD
[13] = system: immortalized mouse BMDMs (iBMDMs); assay: cell death of immortalized mouse BMDMs; type: cell-based; conditions: WT iBMDMs, 5 and 20 μM; not affected by caspase-1/11 ablation
[14] = system: GSDMD KO THP-1 cells reconstituted with WT or D275A GSDMD; assay: PI uptake in GSDMD KO THP-1 cells reconstituted with WT or D275A GSDMD; type: cell-based, human; conditions: 5 or 20 μM, 1, 2 and 4 h
[15] = biological target: GSDMD (YFP at N terminus, RLuc at C terminus) (Homo sapiens, UniProt P57764); assay: BRET assay of GSDMD NT-CT distance; type: cell-based
[16] = system: EMT6 tumor challenge; assay: vaccination with drug-treated EMT6 cells and EMT6 challenge; type: in vivo, mouse; conditions: for mice remaining tumor-free after challenge: immunization with drug-treated EMT6 cells, challenge 8 days later
[17] = system: human peripheral blood mononuclear cells (PBMCs); assay: cell death of human PBMCs; type: cell-based
[18] = biological target: C191A GSDMD (Homo sapiens, UniProt P57764, C191A); assay: liposome leakage assay with C191A GSDMD; type: biochemical
[19] = system: primary mouse bone-marrow-derived macrophages (BMDMs); assay: cell death of primary mouse BMDMs; type: cell-based; conditions: WT and GSDMD KO primary BMDMs
[20] = system: NLRP3; assay: NLRP3 activation in LPS-primed THP-1 cells; type: cell-based, human; conditions: treatment after LPS priming
[21] = system: 4T1E tumors; assay: orthotopic 4T1E tumors in BALB/c mice, DMB and anti-PD-1; type: in vivo, mouse; conditions: DMB 1 mg/kg weekly; anti-PD-1 every 2 days
[22] = biological target: mCherry-tagged full-length GSDMD (Homo sapiens, UniProt P57764); assay: membrane localization of mCherry-tagged full-length GSDMD in HEK293T cells; type: cell-based; conditions: increasing concentrations of DMB
[23] = system: WT EMT6 tumors; assay: orthotopic WT EMT6 tumors in BALB/c mice; type: in vivo, mouse
[24] = biological target: recombinant caspase-1 (Homo sapiens, UniProt P29466); assay: Caspase-1 activity assay; type: biochemical; conditions: in vitro, DMB 10 μM, Z-YVAD-AFC substrate
[25] = system: Gsdmd−/− and Gsdmd−/−Gsdme−/− EMT6 tumors; assay: orthotopic gasdermin-KO EMT6 tumors in BALB/c mice; type: in vivo, mouse; conditions: 10 mg/kg weekly
[26] = system: B16 cells expressing human GSDMD-GFP
[27] = system: EMT6 tumors in NSG mice; assay: EMT6 tumors in NSG mice; type: in vivo, mouse; conditions: NSG mice lacking functional lymphocytes
[28] = toxicity readouts in treated tumor-bearing mice; type: in vivo, mouse
[29] = biological target: C38A GSDMD (Homo sapiens, UniProt P57764, C38A); assay: liposome leakage assay with C38A GSDMD; type: biochemical; conditions: read-out: EC50 for activating GSDMD pore formation
[30] = 10 mg/kg i.p. every 3 days x6 from day 5

T1 sequence (P57764 whole entry): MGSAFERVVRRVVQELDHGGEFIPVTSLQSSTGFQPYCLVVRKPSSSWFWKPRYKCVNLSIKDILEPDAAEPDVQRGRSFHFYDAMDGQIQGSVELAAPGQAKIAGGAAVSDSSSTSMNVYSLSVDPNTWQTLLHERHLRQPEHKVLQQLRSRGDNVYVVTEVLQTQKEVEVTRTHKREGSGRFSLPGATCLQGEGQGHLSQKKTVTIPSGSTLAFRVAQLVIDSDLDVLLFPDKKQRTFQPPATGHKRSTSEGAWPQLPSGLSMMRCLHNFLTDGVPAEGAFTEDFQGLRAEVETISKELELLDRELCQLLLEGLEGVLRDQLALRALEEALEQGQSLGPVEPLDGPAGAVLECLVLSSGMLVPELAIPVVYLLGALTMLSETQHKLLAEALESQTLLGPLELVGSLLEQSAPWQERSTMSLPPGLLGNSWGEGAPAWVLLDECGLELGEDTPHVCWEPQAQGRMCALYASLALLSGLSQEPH
recombinant caspase-1, sequence (P29466 120-297 limits assumed, species assumed): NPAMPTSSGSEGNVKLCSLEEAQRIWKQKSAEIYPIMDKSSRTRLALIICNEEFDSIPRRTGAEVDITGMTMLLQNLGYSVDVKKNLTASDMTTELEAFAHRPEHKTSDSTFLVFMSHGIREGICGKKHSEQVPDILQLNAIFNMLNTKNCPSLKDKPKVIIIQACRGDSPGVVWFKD
recombinant caspase-1, sequence (P29466 317-404 limits assumed, species assumed): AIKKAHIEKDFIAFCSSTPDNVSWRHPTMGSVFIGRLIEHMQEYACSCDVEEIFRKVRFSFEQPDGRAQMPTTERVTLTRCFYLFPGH
C191A GSDMD, sequence (P57764 whole entry C191A): as the sequence (P57764 whole entry) above, with C191A counted along it
C38A GSDMD, sequence (P57764 whole entry C38A): as the sequence (P57764 whole entry) above, with C38A counted along it
GSDMD (YFP at N terminus, RLuc at C terminus), sequence (P57764 whole entry): as the sequence (P57764 whole entry) above
mCherry-tagged full-length GSDMD, sequence (P57764 whole entry): as above

## CC(=O)N[C@@H](Cc1ccccc1)C(=O)N[C@@H](CC(C)C)C(=O)N[C@H](C(=O)N[C@@H](CC(=O)O)C(=O)CCl)[C@@H](C)O [AC-FLTD-CMK] (Ac-FLTD-CH2Cl)
[1]; EMT6 cells
  effect of caspase inhibition on DMB-induced SYTOX Green uptake: did not affect DMB-induced pyroptosis

## CC(C)(C)Nc1nc2cc(Cl)c(Cl)cc2nc1S(C)(=O)=O [DMB, 6,7-dichloro-2-methylsulfonyl-3-N-tert-butylaminoquinoxaline]
[2]
  activation of C191R and C191F full-length GSDMD mutants: could not be activated
[3]
  tumor growth: no significant effect
[4]
  EC50: 700 nM
[1]; EMT6 cells
  ATP release into supernatants: peaked 2 and 3 h
[1]; EMT6 cells, 5 h
  cell death at concentration used for vaccination: 60–70%
[1]
  LDH release: beginning within an hour of treatment
  potency at killing WT EMT6 cells: similarly potent
[5]
  tumor growth: similarly inhibited
[6]
  fold reduced efficacy on mouse GSDMD vs human GSDMD: ~ 5 fold
[7]; WT THP-1 cells, 5 or 20 μM
  cell death by PI uptake: induced significant cell death within 2 h
[7]; read-out: EC50 of DMB-mediated cell death, WT THP-1, PI positivity at 4 h
  EC50: 4.8 ± 0.4 µM
[8]
  sensitivity to DMB-induced pyroptosis by PI uptake: became sensitive to DMB-induced pyroptosis
[9]
  cell death by PI uptake: minimally
[10]
  tumor growth: A similar reduction in tumor growth
[11]
  activation of other human gasdermins: activated human GSDMD but not other human gasdermins
[12]
  Kd: 1100 ± 400 nM
[13]
  cell death: triggered cell death
[14]
  cell death by PI uptake, WT vs D275A GSDMD rescue: comparable cell death
[15]
  BRET signal compared with DMSO control: decreased the BRET signal
[16]; immunization with DMB-treated EMT6 cells
  tumor size, times smaller than in mice immunized with MMC-treated cells: 6 times
[16]
  mice remaining tumor-free after challenge: Three of 12
[17]
  induction of PI positivity, LDH release, ATP release: robustly induced
[18]
  activation of GSDMD pore formation: not activated
[19]
  GSDMD dependence of cell death induction: depended on GSDMD
[20]
  NLRP3 activation (ASC speck formation, IL-1β release): did not significantly activate NLRP3
[21]
  tumor growth / tumor volume vs vehicle: does not inhibit tumor growth on its own
[22]
  membrane localization of mCherry-tagged full-length GSDMD: up to 88%
[23]; 10 mg/kg weekly for 2 weeks, WT EMT6
  tumor growth: significantly suppressed
[23]; 10 mg/kg weekly, WT EMT6 tumors
  GzmB/PFN expression and stimulated IFN-γ/TNF-α production of CD8+ and NK TILs: significantly increased
[24]
  effect on recombinant caspase-1 activity: neither inhibited nor activated
[25]; Gsdmd−/− EMT6
  tumor growth: not significantly reduced
[25]; Gsdmd−/−Gsdme−/− EMT6
  tumor growth: not significantly reduced
[26]; [30]
  surviving mice cured with no palpable tumor: 3
  tumor growth: strongly inhibited tumor growth
[26]; 10 mg/kg i.p. every 3 days x6 from day 5, clones 9 and 10
  mice surviving to the end of the experiment: 5 of 16
[26]; CD3+ CD8+ immunofluorescence
  T cells per tumor area, DMB vs. vehicle: 8.3 fold
[26]; MHCII+ CD11c+ immunofluorescence
  DCs per tumor area, DMB vs. vehicle: 25.2 fold
[26]; treatment from day 10, every 3 days x6
  survival of mice bearing smaller tumors, delayed treatment: two of the four
[27]
  tumor growth: did not suppress the growth
[28]; B16 tumor-bearing mice, 10 mg/kg every 3 days x6
  mouse body weight: no effect
[28]; EMT6-bearing mice, 10 mg/kg
  blood counts: normal blood counts
[29]
  EC50: ~900 nM

## CO[C@@]12[C@H](COC(N)=O)C3=C(C(=O)C(C)=C(N)C3=O)N1C[C@@H]1N[C@@H]12 [MMC, mitomycin C]
[1]; EMT6 cells
  ATP release into supernatants: did not trigger ATP release
[1]; EMT6 cells, 20 h
  cell death at concentration used for vaccination: 60–70%
[1]
  LDH release: much less and delayed LDH release
  potency at killing WT EMT6 cells: similarly potent
[16]
  mice remaining tumor-free after challenge: tumors grew in all the mice

## CCN(CC)C(=S)SSC(=S)N(CC)CC [disulfiram, reference compound]
[17]; pretreatment before DMB
  effect of pretreatment on DMB-induced cell death: strongly suppressed cell death
